pIC50: −log10 of the molar value.
Target: T1, mGluR5 (Rattus norvegicus, UniProt P31424)
T1 construct: tissue Charles River Laboratories; host or cells: rat brain cortex membranes (Sprague-Dawley)
Test: mGluR5 binding assay ([3H]-MPEP radioligand competition)
Details: competition with 3 nM [3H]-MPEP, rat brain cortical membranes, 1 h at 4 °C; mean of at least three independent experiments in duplicate
From the text: Activity of compounds of the invention was examined following a radioligand binding technique using whole rat brain and tritiated 2-methyl-6-(phenylethynyl)-pyridine ([^3H]-MPEP) as a ligand following similar methods than those described in F. Gasparini et al. Bioorg. Med. Chem. Lett. 2002, 12, 407-409 and in J. F. Anderson et al. J. Pharmacol. Exp. Ther. 2002, 303, 3, 1044-1051.
Cortices were dissected out from brains of 200-300 g Sprague-Dawley rats (Charles River Laboratories, L'Arbresle, France). Tissues were homogenized in 10 volumes (vol/wt) of ice-cold 50 mM Hepes-NaOH (pH 7.4) using a Polytron disrupter (Kinematica AG, Luzern, Switzerland) and centrifuged for 30 min at 40,000 g. (4° C.). The supernatant was discarded and the pellet washed twice by resuspension in 10 volumes 50 mM HEPES-NaOH. Membranes were then collected by centrifugation and washed before final resuspension in 10 volumes of 20 mM HEPES-NaOH, pH 7.4. Protein concentration was determined by the Bradford method (Bio-Rad protein assay, Reinach, Switzerland) with bovine serum albumin as standard.
[^3H]-MPEP Binding Experiments:
Membranes were thawed and resuspended in binding buffer containing 20 mM HEPES-NaOH, 3 mM MgCl2, 3 mM CaCl2, 100 mM NaCl, pH 7.4. Competition studies were carried out by incubating for 1 h at 4° C.: 3 nM [^3H]-MPEP (39 Ci/mmol, Tocris, Cookson Ltd, Bristol, U.K.), 50 μg membrane and a concentration range of 0.003 nM-30 μM of compounds, for a total reaction volume of 300 μl. The non-specific binding was defined using 30 μM MPEP. Reaction was terminated by rapid filtration over glass-fiber filter plates (Unifilter 96-well GF/B filter plates, Perkin-Elmer, Schwerzenbach, Switzerland) using 4×400 μl ice cold buffer using cell harvester (Filtermate, Perkin-Elmer, Downers Grove, USA). Radioactivity was determined by liquid scintillation spectrometry using a 96-well plate reader (TopCount, Perkin-Elmer, Downers Grove, USA).
The inhibition curves were generated using the Prism GraphPad program (Graph Pad Software Inc, San Diego, USA). IC50 determinations were made from data obtained from 8 point-concentration response curves using a non linear regression analysis.
The table below represents the mean of IC50 obtained from at least three independent experiments of selected molecules performed in duplicate.

T1 sequence (P31424 21-1203): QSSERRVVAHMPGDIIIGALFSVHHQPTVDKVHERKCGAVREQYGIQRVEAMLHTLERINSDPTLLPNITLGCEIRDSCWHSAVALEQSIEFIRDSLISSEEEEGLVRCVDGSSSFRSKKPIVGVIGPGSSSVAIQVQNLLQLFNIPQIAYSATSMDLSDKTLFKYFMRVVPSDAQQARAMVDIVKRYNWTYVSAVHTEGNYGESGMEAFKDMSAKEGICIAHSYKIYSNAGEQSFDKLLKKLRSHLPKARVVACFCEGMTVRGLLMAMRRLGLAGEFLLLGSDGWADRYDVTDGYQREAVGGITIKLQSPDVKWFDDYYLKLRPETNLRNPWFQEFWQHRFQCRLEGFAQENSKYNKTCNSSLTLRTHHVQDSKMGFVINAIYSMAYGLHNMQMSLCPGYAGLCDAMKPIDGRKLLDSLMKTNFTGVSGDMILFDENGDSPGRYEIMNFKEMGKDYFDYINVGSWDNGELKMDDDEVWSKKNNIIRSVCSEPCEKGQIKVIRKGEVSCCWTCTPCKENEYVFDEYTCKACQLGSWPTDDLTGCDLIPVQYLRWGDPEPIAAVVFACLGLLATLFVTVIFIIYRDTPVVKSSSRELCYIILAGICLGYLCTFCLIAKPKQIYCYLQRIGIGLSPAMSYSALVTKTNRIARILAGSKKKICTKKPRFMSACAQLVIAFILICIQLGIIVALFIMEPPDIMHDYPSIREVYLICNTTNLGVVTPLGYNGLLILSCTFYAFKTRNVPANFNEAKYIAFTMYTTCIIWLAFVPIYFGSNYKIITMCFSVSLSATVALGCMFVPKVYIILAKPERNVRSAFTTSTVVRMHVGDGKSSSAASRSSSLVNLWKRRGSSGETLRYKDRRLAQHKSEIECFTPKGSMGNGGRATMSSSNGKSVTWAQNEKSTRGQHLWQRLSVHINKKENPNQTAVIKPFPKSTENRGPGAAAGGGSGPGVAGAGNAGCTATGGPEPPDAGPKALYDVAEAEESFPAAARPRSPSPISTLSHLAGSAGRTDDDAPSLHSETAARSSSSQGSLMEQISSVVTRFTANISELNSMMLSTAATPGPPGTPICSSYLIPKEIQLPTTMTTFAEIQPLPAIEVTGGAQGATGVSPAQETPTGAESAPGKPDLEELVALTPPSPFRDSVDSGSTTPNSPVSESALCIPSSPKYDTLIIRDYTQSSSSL

`Cn1ccc(C#CCCc2nc3ccccc3s2)n1` [Example 121, 2-(4-(1-Methyl-1H-pyrazol-3-yl)but-3-ynyl)benzo[d]thiazole] and `Cn1ccc(C#CCCn2nc3cccc(Cl)c3n2)n1` [Example 156, 4-Chloro-2-(4-(1-methyl-1H-pyrazol-3-yl)but-3-ynyl)-2H-benzo[d][1,2,3]triazole] cannot be ordered by pIC50: > 5.00 for the first, > 7.30 for the second.

`C(#Cc1ccccn1)CCn1cc(-c2ccccc2)cn1` [Example 122, 2-(4-(4-Phenyl-1H-pyrazol-1-yl)but-1-ynyl)pyridine] and `Cc1ccccc1-c1cnn(CCC#Cc2ccccn2)c1` [Example 142, 2-(4-(4-o-Tolyl-1H-pyrazol-1-yl)but-1-ynyl)pyridine] cannot be ordered by pIC50: > 5.00 for the first, > 5.00 for the second.

`Clc1cccc2cn(CCC#Cc3ccccn3)nc12` [Example 123, 7-Chloro-2-(4-(pyridin-2-yl)but-3-ynyl)-2H-indazole] and `Clc1cccc2nn(CCC#Cc3ccccn3)cc12` [Example 150, 4-Chloro-2-(4-(pyridin-2-yl)but-3-ynyl)-2H-indazole] cannot be ordered by pIC50: > 5.00 for the first, > 7.30 for the second.

`C(#Cc1ccccn1)CCCCn1nc2ccccc2n1` [Example 124, 2-(6-(Pyridin-2-yl)hex-5-ynyl)-2H-benzo[d][1,2,3]triazole] and `Fc1ccc2nn(CCC#Cc3ccccn3)nc2c1` [Example 127, 5-Fluoro-2-(4-(pyridin-2-yl)but-3-ynyl)-2H-benzo[d][1,2,3]triazole] cannot be ordered by pIC50: > 5.00 for the first, > 5.00 for the second.

`Cc1cccc(C#CCCc2ccc3ccccc3n2)n1` [Example 128, 2-(4-(6-Methylpyridin-2-yl)but-3-ynyl)quinoline] and `Cc1cccc(C#CCCn2nc3ccccc3n2)n1` [Example 137, 2-(4-(6-Methylpyridin-2-yl)but-3-ynyl)-2H-benzo[d][1,2,3]triazole] cannot be ordered by pIC50: > 7.30 for the first, > 7.30 for the second.

`FCc1cccc(C#CCCn2cc3ccccc3n2)n1` [Example 133, 2-(4-(6-(Fluoromethyl)pyridin-2-yl)but-3-ynyl)-2H-indazole] and `FCc1cccc(C#CCCn2cc3ccc(F)cc3n2)n1` [Example 151, 6-Fluoro-2-(4-(6-(fluoromethyl)pyridin-2-yl)but-3-ynyl)-2H-indazole] cannot be ordered by pIC50: > 5.00 for the first, > 7.30 for the second.

`Fc1cc(F)c2nn(CCC#Cc3ccccn3)nc2c1` [Example 135, 4,6-Difluoro-2-(4-(pyridin-2-yl)but-3-ynyl)-2H-benzo[d][1,2,3]triazole] and `Fc1ccc2nn(CCC#Cc3ccccn3)nc2c1F` [Example 136, 4,5-Difluoro-2-(4-(pyridin-2-yl)but-3-ynyl)-2H-benzo[d][1,2,3]triazole] cannot be ordered by pIC50: > 5.00 for the first, > 5.00 for the second.

`Fc1cccnc1C#CCCn1nc2ccccc2n1` [Example 138, 2-(4-(3-Fluoropyridin-2-yl)but-3-ynyl)-2H-benzo[d][1,2,3]triazole] and `Clc1cccc(C#CCCn2nc3ccccc3n2)n1` [Example 180, 2-(4-(6-Chloropyridin-2-yl)but-3-ynyl)-2H-benzo[d][1,2,3]triazole] cannot be ordered by pIC50: > 5.00 for the first, > 5.00 for the second.

`FCc1cccc(C#CCCn2nc3ccc(F)cc3n2)n1` [Example 139, 5-Fluoro-2-(4-(6-(fluoromethyl)pyridin-2-yl)but-3-ynyl)-2H-benzo[d][1,2,3]triazole] and `Cc1ccc2nn(CCC#Cc3cccc(CF)n3)nc2c1` [Example 165, 2-(4-(6-(Fluoromethyl)pyridin-2-yl)but-3-ynyl)-5-methyl-2H-benzo[d][1,2,3]triazole] cannot be ordered by pIC50: > 7.30 for the first, > 7.30 for the second.

`Fc1ccc(-c2cnn(CCC#Cc3ccccn3)c2)cc1` [Example 140, 2-(4-(4-(4-Fluorophenyl)-1H-pyrazol-1-yl)but-1-ynyl)pyridine] and `Fc1ccc(-c2ccnn2CCC#Cc2ccccn2)cc1` [Example 171, 2-(4-(5-(4-Fluorophenyl)-1H-pyrazol-1-yl)but-1-ynyl)pyridine] cannot be ordered by pIC50: > 5.00 for the first, > 5.00 for the second.

`Cc1nc(C#CCCn2nc3ccccc3n2)cs1` [Example 141, 2-(4-(2-Methylthiazol-4-yl)but-3-ynyl)-2H-benzo[d][1,2,3]triazole] and `CC(F)c1cccc(C#CCCn2nc3ccccc3n2)n1` (stereo not shown) [Example 182, 2-(4-(6-(1-Fluoroethyl)pyridin-2-yl)but-3-ynyl)-2H-benzo[d][1,2,3]triazole] cannot be ordered by pIC50: > 7.30 for the first, > 5.00 for the second.

`Cc1ccccc1-c1cnn(CCC#Cc2cccc(CF)n2)c1` [Example 143, 2-(Fluoromethyl)-6-(4-(4-o-tolyl-1H-pyrazol-1-yl)but-1-ynyl)pyridine] and `FCc1cccc(C#CCCn2cc(-c3ccc(F)cc3)cn2)n1` [Example 144, 2-(Fluoromethyl)-6-(4-(4-(4-fluorophenyl)-1H-pyrazol-1-yl)but-1-ynyl)pyridine] cannot be ordered by pIC50: > 5.00 for the first, > 5.00 for the second.

`FCc1cccc(C#CCCc2cnc3cc(F)ccc3n2)n1` [Example 145, 6-Fluoro-2-(4-(6-(fluoromethyl)pyridin-2-yl)but-3-ynyl)quinoxaline] and `Cc1nc2ccccc2nc1CCC#Cc1cccc(CF)n1` [Example 181, 2-(4-(6-(Fluoromethyl)pyridin-2-yl)but-3-ynyl)-3-methylquinoxaline] cannot be ordered by pIC50: > 7.30 for the first, > 5.00 for the second.

`Clc1cccc2nn(CCC#Cc3ccccn3)nc12` [Example 146, 4-Chloro-2-(4-(pyridin-2-yl)but-3-ynyl)-2H-benzo[d][1,2,3]triazole] and `Cc1cccc2nn(CCC#Cc3ccccn3)nc12` [Example 163, 4-Methyl-2-(4-(pyridin-2-yl)but-3-ynyl)-2H-benzo[d][1,2,3]triazole] cannot be ordered by pIC50: > 7.30 for the first, > 7.30 for the second.

`FCc1cccc(C#CCCn2nc3cccc(Cl)c3n2)n1` [Example 147, 4-Chloro-2-(4-(6-(fluoromethyl)pyridin-2-yl)but-3-ynyl)-2H-benzo[d][1,2,3]triazole] and `Cc1cccc2nn(CCC#Cc3cccc(CF)n3)nc12` [Example 164, 2-(4-(6-(Fluoromethyl)pyridin-2-yl)but-3-ynyl)-4-methyl-2H-benzo[d][1,2,3]triazole] cannot be ordered by pIC50: > 7.30 for the first, > 7.30 for the second.

`FCc1cccc(C#CCCn2cc3c(F)cccc3n2)n1` [Example 149, 4-Fluoro-2-(4-(6-(fluoromethyl)pyridin-2-yl)but-3-ynyl)-2H-indazole] and `FCc1cccc(C#CCCn2cc3c(Cl)cccc3n2)n1` [Example 152, 4-Chloro-2-(4-(6-(fluoromethyl)pyridin-2-yl)but-3-ynyl)-2H-indazole] cannot be ordered by pIC50: > 7.30 for the first, > 7.30 for the second.

`FCc1cccc(C#CCCn2cc3cccc(F)c3n2)n1` [Example 155, 7-Fluoro-2-(4-(6-(fluoromethyl)pyridin-2-yl)but-3-ynyl)-2H-indazole] and `O=[N+]([O-])c1cccc2nn(CCC#Cc3cccc(CF)n3)nc12` [Example 161, 2-(4-(6-(Fluoromethyl)pyridin-2-yl)but-3-ynyl)-4-nitro-2H-benzo[d][1,2,3]triazole] cannot be ordered by pIC50: > 7.30 for the first, > 5.00 for the second.

`Nc1cccc(C#CCCn2nc3cc(F)cc(F)c3n2)n1` [Example 157, 6-(4-(4,6-Difluoro-2H-benzo[d][1,2,3]triazol-2-yl)but-1-ynyl)pyridin-2-amine] and `Cc1ccc2nn(CCC#Cc3cccc(CF)n3)nc2c1C` [Example 178, 2-(4-(6-(Fluoromethyl)pyridin-2-yl)but-3-ynyl)-4,5-dimethyl-2H-benzo[d][1,2,3]triazole] cannot be ordered by pIC50: > 5.00 for the first, > 5.00 for the second.

`C(#Cc1ccccn1)CCn1ccc(-c2ccccc2)n1` [Example 159, 2-(4-(3-Phenyl-1H-pyrazol-1-yl)but-1-ynyl)pyridine] and `Cc1ccc2nn(CCC#Cc3ccccn3)nc2c1` [Example 166, 5-Methyl-2-(4-(pyridin-2-yl)but-3-ynyl)-2H-benzo[d][1,2,3]triazole] cannot be ordered by pIC50: > 5.00 for the first, > 6.30 for the second.

`O=[N+]([O-])c1cccc2nn(CCC#Cc3ccccn3)nc12` [Example 160, 4-Nitro-2-(4-(pyridin-2-yl)but-3-ynyl)-2H-benzo[d][1,2,3]triazole] and `Cc1ccc2nn(CCC#Cc3ccccn3)nc2c1C` [Example 177, 4,5-Dimethyl-2-(4-(pyridin-2-yl)but-3-ynyl)-2H-benzo[d][1,2,3]triazole] cannot be ordered by pIC50: > 5.00 for the first, > 5.00 for the second.

`FC(CC#Cc1ccccn1)c1cnc2ccccc2n1` (stereo not shown) [Example 172, 2-(1-Fluoro-4-(pyridin-2-yl)but-3-ynyl)quinoxaline] and `O=CNc1cccc(C#CCCn2nc3ccccc3n2)n1` [Example 175, N-(6-(4-(2H-Benzo[d][1,2,3]triazol-2-yl)but-1-ynyl)pyridin-2-yl)formamide] cannot be ordered by pIC50: > 5.00 for the first, > 5.00 for the second.

In the case of `Cc1nc(C#CCCn2nc3cccc(Cl)c3n2)cn1C` [Example 176, 4-Chloro-2-(4-(1,2-dimethyl-1H-imidazol-4-yl)but-3-ynyl)-2H-benzo[d][1,2,3]triazole], the pIC50 was > 5.00.

Source: patent US8883826B2, “Alkynyl derivatives as modulators of metabotropic glutamate receptors” (Addex Pharma SA, priority 2004, dated 2014)
